Where two headings read alike, the source gives them in different places.
Experiments:
[1] = target: T1, D1R; D1 receptor fused to C-terminal RLuc (BRET assay) (Homo sapiens, UniProt P21728); assay: cell-based; design: species or system HEK293T; conditions: HEK-293T, read-out: β-arrestin Emax (%), D1R
[2] = target: T2, D2R; D2Long receptor fused to C-terminal RLuc (BRET assay) (Homo sapiens, UniProt P14416); assay: cell-based; design: species or system HEK293T; conditions: for Emax: HEK-293T, read-out: β-arrestin Emax (%), D2R
T2 sequence (P14416 whole entry, the tested form may be a part): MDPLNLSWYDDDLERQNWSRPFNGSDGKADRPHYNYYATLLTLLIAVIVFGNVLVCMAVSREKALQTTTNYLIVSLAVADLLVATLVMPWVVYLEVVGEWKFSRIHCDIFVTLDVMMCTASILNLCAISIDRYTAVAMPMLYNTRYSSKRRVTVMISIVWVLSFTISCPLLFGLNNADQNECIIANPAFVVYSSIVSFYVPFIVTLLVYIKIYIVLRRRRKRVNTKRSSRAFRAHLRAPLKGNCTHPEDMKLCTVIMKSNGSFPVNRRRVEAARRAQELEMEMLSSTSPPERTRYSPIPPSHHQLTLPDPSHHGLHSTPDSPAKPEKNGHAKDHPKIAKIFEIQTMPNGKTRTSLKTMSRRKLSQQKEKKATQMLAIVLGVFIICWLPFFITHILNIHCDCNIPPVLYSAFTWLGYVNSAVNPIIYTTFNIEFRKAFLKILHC

[3] = target: T2, D2R; D2Long receptor fused to C-terminal RLuc (BRET assay); assay: BRET beta-arrestin2 recruitment, HEK293T; type: cell-based
[4] = target: T1, D1R; D1 receptor fused to C-terminal RLuc (BRET assay); assay: BRET beta-arrestin2 recruitment, HEK293T; type: cell-based
[5] = target: T1, D1R; D1 receptor fused to C-terminal RLuc (BRET assay); assay: cell-based; design: species or system HEK293T; conditions: HEK-293T, read-out: β-arrestin Emax (%), D1R; remark: listed apart in the source
[6] = target: T2, D2R; D2Long receptor fused to C-terminal RLuc (BRET assay); assay: cell-based; design: species or system HEK293T; conditions: HEK-293T, read-out: β-arrestin Emax (%), D2R
[7] = target: T2, D2R; D2Long receptor fused to C-terminal RLuc (BRET assay); assay: cell-based; design: species or system HEK293T
[8] = target: T2, D2R; D2Long receptor fused to C-terminal RLuc (BRET assay); assay: cell-based; design: species or system HEK293T; remark: listed apart in the source
[9] = target: T1, D1R; D1 receptor fused to C-terminal RLuc (BRET assay); assay: cell-based; design: species or system HEK293T; conditions: HEK-293T, read-out: β-arrestin Emax (%), D1R; remark: listed apart in the source
[10] = target: T2, D2R; D2Long receptor fused to C-terminal RLuc (BRET assay); assay: cell-based; design: species or system HEK293T; conditions: HEK-293T, read-out: β-arrestin Emax (%), D2R; remark: listed apart in the source
[11] = target: T2, D2R; D2Long receptor fused to C-terminal RLuc (BRET assay); assay: cell-based; design: species or system HEK293T; remark: listed apart in the source
[12] = target: T2, D2R; D2Long receptor fused to C-terminal RLuc (BRET assay); conditions: agonist
[13] = target: T1, D1R; D1 receptor fused to C-terminal RLuc (BRET assay); assay: cell-based; design: species or system HEK293T; conditions: HEK-293T, read-out: β-arrestin Emax (%), D1R; remark: listed apart in the source

T1 sequence (P21728 whole entry, the tested form may be a part): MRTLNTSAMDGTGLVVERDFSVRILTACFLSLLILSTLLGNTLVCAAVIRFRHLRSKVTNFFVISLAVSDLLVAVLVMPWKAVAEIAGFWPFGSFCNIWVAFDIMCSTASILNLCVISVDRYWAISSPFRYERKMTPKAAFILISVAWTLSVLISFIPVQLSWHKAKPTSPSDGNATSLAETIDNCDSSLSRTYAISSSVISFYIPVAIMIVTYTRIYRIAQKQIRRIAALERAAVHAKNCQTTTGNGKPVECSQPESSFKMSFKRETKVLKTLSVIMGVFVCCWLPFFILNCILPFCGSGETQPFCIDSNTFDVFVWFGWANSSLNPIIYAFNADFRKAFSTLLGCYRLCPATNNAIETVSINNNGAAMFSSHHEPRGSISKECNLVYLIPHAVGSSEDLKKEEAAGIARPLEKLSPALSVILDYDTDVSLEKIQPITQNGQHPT

| SMILES | EC50 [4] | Emax [2] | EC50 [3] | further results |
| --- | --- | --- | --- | --- |
| Oc1cc2c(cc1O)[C@H]1c3cc(Br)sc3CN[C@@H]1CC2 (racemic) [1b] |  | 60.3 ± 2.27% |  | Emax [1]: 138 ± 8.41% |
| Oc1cc2c(cc1O)[C@H](c1cccs1)[C@@H](NCc1ccccc1)CC2 (racemic) [1l] |  | 8.62 ± 3.15% |  |  |
| N[C@H]1CCc2cc(O)c(O)cc2[C@@H]1c1cccs1 (racemic) [1m] |  | 27 ± 1.8% |  | Emax [1]: 3.7 ± 1.67% |
| CN1Cc2sccc2[C@@H]2c3cc(O)c(O)cc3CC[C@H]21 (relative stereo) [1j] | > 10 µM | 73.4 ± 17.8% | 7.48 µM |  |
| Oc1cc2c(cc1O)[C@H]1c3cc(Br)sc3CN[C@@H]1CC2 [1c] |  | 70.3 ± 3.41% |  | Emax [1]: 137 ± 9.35% |
| Oc1cc2c(cc1O)[C@@H]1c3cc(Br)sc3CN[C@H]1CC2 [1d] | 2.63 µM | 50.6 ± 4.02% | 5.62 µM | Emax [1]: 52.8 ± 9.7% |
| Oc1cc2c(cc1O)[C@H]1c3cc(-c4cccc(C(F)(F)F)c4)sc3CN[C@@H]1CC2 [1h] | > 10 µM | 73 ± 4.69% | 4.84 µM |  |
| Oc1cc2c(cc1O)[C@@H]1c3cc(-c4cccc(C(F)(F)F)c4)sc3CN[C@H]1CC2 [1i] | > 10 µM |  | > 10 µM |  |
| CCCc1cc2c(s1)CN[C@H]1CCc3cc(O)c(O)cc3[C@H]21 [(+)-A-86929] | 2.8 µM | 38 ± 4.45% | 2.07 µM | Emax [1]: 94.1 ± 6.55% |
| CCCc1cc2c(s1)CN[C@@H]1CCc3cc(O)c(O)cc3[C@@H]21 [(-)-A-86929] | 0.607 µM | 79.7 ± 3.83% | 0.27 µM | Emax [1]: 95.5 ± 6.88% |
| CCCc1cc2c(s1)CN[C@@H]1CCc3cc(OC(C)=O)c(OC(C)=O)cc3[C@@H]21 [ABT-431] | 3.2 µM | 23 ± 2.15% | 3 µM | Emax [1]: 88.2 ± 3.06% |
| NCCc1ccc(O)c(O)c1 [DA] |  |  |  | β-arrestin Emax (%), D2R ([2]; beta-arrestin2 recruitment, % of dopamine, agonist): 90.29±3.23%; D2R beta-arrestin Emax (%) [12]: 90.29±3.23% |
| COc1cccc(-c2ccc(O)c(O)c2)c1 [Z4642446630] |  |  |  | EC50 ([4]; agonist mode, beta-arrestin2 pathway, pH […]): 5.48 µM; Emax [13]: 17.1 ± 5.3% |

Continued, in another order:

| EC50 [4] | SMILES | Emax [2] | EC50 [3] | further results |
| --- | --- | --- | --- | --- |
| 6.9 µM | Cc1cc(-c2cccc(O)c2O)cs1 [2a] |  |  | Emax [5]: 30.3 ± 5.6%; Emax [6]: 13.9 ± 3.68% |
| 0.0052 µM | Oc1cccc(-c2cccc(C(F)(F)F)c2)c1O [2b] |  |  | Emax [5]: 6.13 ± 3.11%; EC50 [7]: > 10 µM |
| > 10 µM | N#Cc1ccc(-c2cccc(O)c2O)cc1 [2c] |  |  | EC50 [7]: 0.0317 µM; Emax [6]: 1.61 ± 1.27% |
| 0.053 µM | Oc1cccc(-c2cccnc2)c1O [2d] |  |  | Emax [5]: 2.6 ± 1.8%; EC50 [8]: > 100 µM |
| > 10 µM | N#Cc1cccc(-c2cccc(O)c2O)c1 [2e] |  |  | EC50 [8]: > 100 µM |
| 0.0514 µM | NS(=O)(=O)c1ccc(-c2cccc(O)c2O)cc1 [2f] |  |  | Emax [5]: 4.6 ± 1.5%; EC50 [8]: > 100 µM |
| 0.00733 µM | Nc1cccc(-c2cccc(O)c2O)c1 [2g] |  |  | Emax [5]: 4 ± 1.6%; EC50 [8]: > 100 µM |
| 0.689 µM | Oc1cccc(-c2cncc3ccccc23)c1O [2h] |  |  | Emax [5]: 8.1 ± 2.1%; EC50 [8]: > 100 µM |
| > 10 µM | Oc1cccc(-c2cnc3ccccc3c2)c1O [2i] |  |  | EC50 [8]: > 100 µM |
| 0.229 µM | OCCc1ccc(O)c(O)c1 [3a] |  | 5.26 µM | Emax [9]: 11.5 ± 3.05%; Emax [10]: 9.98 ± 2.96% |
| 0.534 µM | OCCCc1ccc(O)c(O)c1 [3b] |  |  | Emax [9]: 3.5 ± 1.9%; EC50 [11]: > 10 µM |

Reference: paper doi:10.1101/2021.10.01.462758v2 (biorxiv, 2021)
